In US20240150396A1 (The Texas A&M University System, priority 2021, published 2024):
Read-outs that look alike come from different tables or passages of the source. Non-standard residues stand in square brackets, D forms with d. Residues, ends and D or L forms follow the SMILES beside them. *: point of attachment. Phe(2-OMe) = COc1ccccc1C[C@H](N)C(=O)O; 4Pal = N[CH](Cc1ccncc1)C(=O)O; AMC = Cc1cc(=O)oc2cc(N*)ccc12; Cbz = O=C(OCc1ccccc1)*

Assays:
cruzain [1] = target: T1, cruzain (Trypanosoma cruzi, UniProt P25779); experiment: biochemical; conditions: pH 7.5
T1 sequence (P25779 123-467 limits assumed): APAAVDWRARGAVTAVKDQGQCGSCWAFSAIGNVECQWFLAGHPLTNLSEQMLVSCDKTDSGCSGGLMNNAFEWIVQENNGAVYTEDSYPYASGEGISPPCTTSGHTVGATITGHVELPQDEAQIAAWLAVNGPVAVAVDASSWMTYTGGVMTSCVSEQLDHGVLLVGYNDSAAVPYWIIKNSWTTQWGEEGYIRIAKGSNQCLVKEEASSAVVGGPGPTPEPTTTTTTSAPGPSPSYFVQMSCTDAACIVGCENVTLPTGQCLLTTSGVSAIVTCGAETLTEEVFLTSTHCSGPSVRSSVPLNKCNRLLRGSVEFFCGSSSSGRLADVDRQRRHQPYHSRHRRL
Procedure: All enzyme assays were performed at 25° C. Initial rates of the peptidolytic reaction catalyzed by cruzain were measured by monitoring the fluorescence generated by cleavage of the dipeptide-AMC bond. Assays were conducted in 96-well plates (Greiner; flat-bottom, clear black plates) in a total volume of 250 μL, containing either 50 mM MES (pH 7.5), 50 mM TAPSO, 100 mM DEA, 1 mM CHAPS, 1 mM Na2EDTA, 5 mM DTT, and 10% DMSO (v/v) or 50 mM sodium acetate (pH 5.5), 50 mM MES, 100 mM TEA, 1 mM CHAPS, 1 mM Na2EDTA, 5 mM DTT, and 10% DMSO (v/v). Substrates were dissolved in 100% DMSO and were then diluted 10-fold such that when added to reaction mixtures, final DMSO concentration was 10% (v/v). […] Fluorescence was measured on either a SpectraMax M5 (Molecular Devices) or a Synergy HTX (BioTek, Winooski, VT) microplate reader (λex=360 nm, λem=460 nm). Initial rates were determined from continuous kinetic time courses and calculated from the earliest time points, typically at less than 10 min.
(2) Enzyme and compound were preincubated over extended periods of time, and then aliquots were removed and diluted 50-fold to 100-fold into reaction mixtures containing 10 μM Cbz-Phe-Arg-AMC, followed by the assessment of the resulting time courses.
Data for time-dependent inhibition were fitted by several methods.
Values of kobs versus [inhibitor] were then replotted and fitted to eq 4 for which k3 and k4 represent the respective rates of formation and dissolution of the EI* complex as depicted in FIG. 9.
In addition, time-course data were fitted globally by two methods. First, expressions for vs, vi, and kobs were substituted into eq 3 to generate eq 6, which was used to fit time-course data at all concentrations of inhibitors simultaneously. Second, time-course data were fitted using KinTek Explorer as either a single-binding step model with the two kinetic parameters k3/Ki and k4 or a two-step binding mechanism as shown in FIG. 9 from which rate constants k1-k4 are determined (Supporting Information).
Enzyme Assays. The preparation of cruzain and 3CL^pro were described in previous publications.^8, 34 The evaluation of inhibitors was modified from our lab protocol and described briefly as follows.^35 All enzyme assays were conducted in 96-well, clear bottom, black plates at 25° C., and fluorescence emanating from product formation was measured using either a SpectraMax M5 (Molecular Devices) or a Synergy HTX (Biotek) microplate reader, with excitation at λex=360 nm and emission at λem=460 nm. […] Reactions were started with addition of enzyme (typically, to a final concentration of 0.2 nM for cruzain or 40 nM for 3CL^pro), and the time courses were recorded for 0.5-1 h.
Kinetic Data Analysis. All time-course data were fitted to eq. 1, wherein P is the fluorescence generated by formation of AMC or liberated ACC, C is the background constant, vi and vs are respectively initial-state and steady-state reaction rates, t is time, and kobs is the observed rate of conversion of the initial inhibited rate to the final inhibited rate.^46
Overall inhibition constants (Ki* values) were obtained by fitting vs/v0 to eq. 4, wherein vs and v0 are steady-state reaction rates in the presence and absence of inhibitor respectively, [S] and [I] represent the fixed concentration of substrate and variable inhibitor, Km is the Michaelis constant of the substrate.

[2] = test system: T. cruzi (Ca-I/72) in C2C12 murine cardiomyoblasts; experiment: T. cruzi-infected murine cardiomyoblasts (C2C12); type: cell-based, Trypanosoma cruzi; conditions: read-out: EC50 T. cruzi-infected cardiomyoblasts
Procedure: For the evaluation of the antitrypanocidal activity of cruzain inhibitors, we infected a C2C12 mouse cardiomyoblast cell line (ATCC CRL-1772) with T. cruzi strain Ca-I/72 (a gift from James Dvorak, National Institutes of Health) in […] plates. […] The plates were incubated at 37° C. for 48 h, and the wells were fixed with 2% paraformaldehyde in PBS and stained with 5 μg mL-1 4,6-diamidino-2-phenylindole. After at least 30 min of incubation at room temperature in the dark, the plates were read in an automated microscope, ImageXpress Micro XL (Molecular Devices), and the images were analyzed by custom-built software to quantify and assess viability of the parasites, as well as the host cells independently. The compilation of data was used to calculate the antiparasitic activity (EC50) and host cytotoxicity (CC50).
T. cruzi infection was evaluated in C2C12 murine cardiomyoblast cells. 384-microwell plates containing C2C12 murine cardiomyoblast cells were infected with 10^3 and 10^4 cells of T. cruzi (Ca-I/72), to which was added 3-fold serially-dilutions of inhibitor with maximal concentrations of 10 μM, followed by incubation at 37° C. for 2 days. The wells were fixed with 2% PFA in PBS, and stained by 5 μg/ml of DAPI. After >30 min of incubation in a dark environment, the plates were read on an ImageXpress MicroXL microscope (Molecular Devices). The images were analyzed to quantify parasites as well host cells.

SARS-CoV-2 3CL protease = SARS-CoV-2 3CL protease (Severe acute respiratory syndrome coronavirus 2 (2019-nCoV) (SARS-CoV-2), UniProt P0DTD1); experiment: biochemical; type: biochemical; conditions: read-out: Ki* 3CLpro
[3] = test system: T. b. brucei bloodstream forms; experiment: Growth of axenic cultures of T. b. brucei bloodstream forms (BSFs); conditions: Trypanosoma brucei, read-out: EC50 T. b. brucei BSF, axenic culture
Procedure: Selected cruzain inhibitors were evaluated in axenic cell cultures of T. b. brucei and T. cruzi. Procyclic trypomastigotes of T. b. brucei (ATCC PRA-381) were grown in the SDM-79 medium at 26° C., and bloodstream forms (ATCC PRA-383) were grown at 37° C. in the HMI-9 medium at 5% C02. […] Both forms of T. b. brucei and T. cruzi were grown in media containing 10% fetal bovine serum (FBS) and penicillin/streptomycin (50 U mL^−1). […] Control samples contained equal amounts of DMSO. T. b. brucei and T. cruzi (5 mL in flask cultures) were seeded at ˜3×10^6 cells and diluted daily, maintaining a mid-log growth phase for up to 120 h. […] After each cell dilution, fresh compound or an equal volume of DMSO (control samples) was supplemented into the cultures, while maintaining a constant concentration of each inhibitor. Cell counts were scored using a Z2 Coulter Counter.
In vitro Cell Assays. Bloodstream form T. b. brucei strain SM427 was grown in HM1-9 medium that included fetal bovine serum (10%) and antibiotics (100 U/mL penicillin-streptomycin, Gibco™). Inhibitors dissolved in 100% (v/v) DMSO stock solutions were added at final concentrations of 0.5-20 μM (final concentrations of DMSO were <1% (v/v)). T. b. brucei were seeded at ˜1×10^6 cells at 37° C., and diluted daily to maintain a log phase of growth for up to 96 h. […] After each dilution, the cell cultures were supplemented with inhibitor or DMSO (control) to keep concentrations constant. Cell density was determined and graphed as previously reported.^36 Trypanosomes were quantified using a Z2 Coulter Counter, and values of EC50 were determined after 3-4 days of treatment by the interpolation method of Huber and Koella.^37

human cathepsin B = human cathepsin B (Homo sapiens (Human), UniProt P07858); experiment: Human cathepsin B inhibition, Z-FR-AMC assay; type: biochemical
Procedure: (§1) Recombinant human cathepsins B and L were purchased from Millipore Sigma and used without further treatment. The solid proteins were dissolved into a solution of 50 mM sodium acetate (pH 5.5), 1 mM EDTA, 1 mM CHAPS, 10% (v/v) DMSO, and 5 mM DTT to final concentrations of […] in 20-mL aliquots, and stored at −80° C. until needed. These samples were then diluted into the same buffer to concentrations of −100 nM, and these dilutions were stored at 4° C. and used daily until depletion.
(§2) For assays of cathepsin L and B, inhibitors were evaluated in 0.25-mL reaction mixtures containing a buffer of sodium acetate (pH 5.5), 1 mM CHAPS, 1 mM Na2EDTA, and 5 mM DTT at 25° C. The fluorogenic substrate Cbz-Phe-Arg-7-amino-4-methyl-coumarin (Z-FR-AMC) was dissolved in 100% DMSO, as were all inhibitors, and aliquots of both substrates and inhibitors were added to reaction mixtures to final concentrations of DMSO of 10% (v/v). […] Formation of the fluorescent product AMC was monitored over 30-60-minute time courses for reaction mixtures in 96-well black microplates (Corning Costar®). Rates of peptidolysis of the dipeptide-AMC substrate(s) were measured on either a SpectraMax M5 (Molecular Devices) or a Synergy HTX (Biotek, Wisnooki, VT) microplate reader with λex=360 nm, λem=460 nm in ≥8-sec intervals. Control samples excluded substrate. The measured relative fluorescence units (RFUs) of generated AMC were converted to reaction rates of μM/s by use of a standard curve of known AMC concentrations obtained for both plate readers.

[4] = test system: T. b. brucei procyclic forms; experiment: Growth of axenic cultures of T. b. brucei procyclic forms (PCFs); type: cell-based, Trypanosoma brucei brucei; conditions: Trypanosoma brucei, axenic culture; read-out: EC50 T. b. brucei PCF
human cathepsin L = human cathepsin L (Homo sapiens (Human), UniProt P07711); experiment: Human cathepsin L inhibition, Z-FR-AMC assay; type: biochemical
Sequence of human cathepsin L (P07711 114-333): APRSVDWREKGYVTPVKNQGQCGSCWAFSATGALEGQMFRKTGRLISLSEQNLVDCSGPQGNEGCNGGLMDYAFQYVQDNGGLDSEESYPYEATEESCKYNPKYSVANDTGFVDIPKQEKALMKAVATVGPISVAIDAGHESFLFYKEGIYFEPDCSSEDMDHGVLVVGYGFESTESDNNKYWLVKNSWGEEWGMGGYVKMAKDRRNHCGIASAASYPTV
Procedure: as §1, §2

cruzain [5] = target: T1, cruzain; experiment: Kinetic parameters of peptide substrates for cruzain; type: biochemical; conditions: for Km / kcat / kcat/Km: pH 7.5, 25° C., 10% DMSO; for kcat rel: relative to Cbz-Phe-Arg-AMC
Procedure: All enzyme assays were performed at 25° C. Initial rates of the peptidolytic reaction catalyzed by cruzain were measured by monitoring the fluorescence generated by cleavage of the dipeptide-AMC bond. Assays were conducted in 96-well plates (Greiner; flat-bottom, clear black plates) in a total volume of 250 μL, containing either 50 mM MES (pH 7.5), 50 mM TAPSO, 100 mM DEA, 1 mM CHAPS, 1 mM Na2EDTA, 5 mM DTT, and 10% DMSO (v/v) or 50 mM sodium acetate (pH 5.5), 50 mM MES, 100 mM TEA, 1 mM CHAPS, 1 mM Na2EDTA, 5 mM DTT, and 10% DMSO (v/v). Substrates were dissolved in 100% DMSO and were then diluted 10-fold such that when added to reaction mixtures, final DMSO concentration was 10% (v/v). Reactions were initiated with the addition of 1-10 μL of cruzain (final concentrations: 0.1-3.0 nM (preincubation studies)). Fluorescence was measured on either a SpectraMax M5 (Molecular Devices) or a Synergy HTX (BioTek, Winooski, VT) microplate reader (λex=360 nm, λem=460 nm). Initial rates were determined from continuous kinetic time courses and calculated from the earliest time points, typically at less than 10 min.
Initial velocity data for cruzain-catalyzed reactions of fluorogenic peptide substrates were determined by fitting to eq 1 using GraphPad Prism 6.0 or SigmaPlot 12.0. For eq 1, kcat is the turnover number, [E]t is the concentration of active sites of cruzain, and Ka is the Michaelis constant for the substrate A. Cruzain concentrations were determined by spectrophotometric analysis of purified sample solutions as described.^44

[6] = Thiolation of inhibitors with glutathione, LCMS; type: physicochemical; conditions: 1 mM glutathione, 0.5 mM compound, Tris pH 8.0, 10% DMSO, room temperature
Procedure: Samples were analyzed by HPLC-MS (as described above) by injecting 0.01 mL aliquots onto a Luna […] C18(2) 100 Å, 4.6 mm, 50 mm column (Phenomenex) using the HPLC method described in the chemistry section at 0-6 h time points. […] Integration of the chromatographic peaks of the inhibitors and their GSH adducts at each time point was used to determine the rate of GSH adduct formation.

[7] = apparent tight-binding inhibition constant, 25° C., read-out: Ki*
[8] = Trypanosoma cruzi, C2C12, C2C12 murine cardiomyoblasts
[9] = obtained >10 minutes following initiation of reaction by addition of enzyme, read-out: Ki* Cruzain

Compound: NCCCC[C@@H](/C=C/c1ccccn1)NC(=O)[C@H](Cc1ccccc1)NC(=O)OCc1ccccc1 [Compound 20, (S,E)-5-((S)-2-(((Benzyloxy)carbonyl)amino)-3-phenylpropanamido)-7-(pyridin-2-yl)hept-6-en-1-aminium Chloride]
- Ki (cruzain [1]; apparent initial inhibition constant, 25° C., read-out: Ki): 17300 ± 300 nM
- Ki (cruzain [1]; [7]): 870 nM
- EC50 [2, 8]: 5000 to 8000 nM

Compound: Cc1ccc2c(c1)C[C@H](NC(=O)[C@H](Cc1ccccc1)NC(=O)OCc1ccccc1)C(O)O2 (stereo partly drawn) [Compound 32, Benzyl ((2S)-1-(((3S)-2-hydroxy-6-methylchroman-3-yl)amino)-1-oxo-3-phenylpropan-2-yl)carbamate]
- Ki (cruzain [1]; Ki* Cruzain, obtained >10 minutes following initiation of reaction by addition of enzyme): 100 nM
- Ki (cruzain [1]; [9]): 103 ± 5 nM
- Ki (SARS-CoV-2 3CL protease; pH 7.5): > 10000 nM
- EC50 [3]: 500 nM
- Ki (human cathepsin B; pH 5.5, 25° C., read-out: Ki* hCatB): 6100 ± 900 nM
- EC50 ([2]; C2C12 murine cardiomyoblasts): 3000 to 5700 nM
- EC50 [2, 8]: 5700 ± 600 nM
- EC50 [4]: 7000 nM
- Ki (human cathepsin L; pH 5.5, 25° C., read-out: Ki* hCatL): 58 ± 2 nM

Compound: Cc1cc(=O)oc2cc(NC(=O)[C@H](CCCN=C(N)N)NC(=O)[C@H](Cc3ccccc3)NC(=O)OCc3ccccc3)ccc12 [Compound S1, Cbz-Phe-Arg-AMC] (Cbz-Phe-Arg-{AMC})
- Km (human cathepsin B; pH 5.5): 150 µM
- Km (cruzain [5]): 0.89 ± 0.09 µM
- kcat (cruzain [5]): 9.6 ± 0.2 s⁻¹
- kcat/Km (cruzain [5]): 1.1e+07 ± 1e+06 M⁻¹ s⁻¹
- Km (cruzain [5]; listed as Cbz-Phe-Arg-AMC): 0.9 µM
- kcat/Km (cruzain [5]; listed as Cbz-Phe-Arg-AMC): 1.1e+07 M⁻¹ s⁻¹
- kcat rel (cruzain [5]): 1.00
- Km (human cathepsin L; pH 5.5): 2.9 µM

Compound: COc1ccccc1C[C@@H](C=O)NC(=O)[C@H](Cc1ccccc1)NC(=O)OCc1ccccc1 [Compound 29] (Cbz-Phe-[Phe(2-OMe)]-aldehyde)
- Ki (cruzain [1]; [9]): 22 nM
- Ki (SARS-CoV-2 3CL protease): > 10000 nM

Compound: O=C(N[C@@H](Cc1ccccc1)C(=O)N[C@H](/C=C/c1nccs1)Cc1ccccc1)OCc1ccccc1 [Compound 25, Benzyl ((S)-1-Oxo-3-phenyl-1-(((S,E)-1-phenyl-4-(thiazol-2-yl)-but-3-en-2-yl)amino)propan-2-yl)carbamate]
- Rate of Thiolation, k [6]: Negligible
- Ki (cruzain [1]; [7]): 1710 nM

Compound: C[n+]1ccsc1/C=C/[C@H](Cc1ccccc1)NC(=O)[C@H](Cc1ccccc1)NC(=O)OCc1ccccc1.[I-] [Compound 26, 2-((S,E)-3-((S)-2-(((Benzyloxy)carbonyl)amino)-3-phenylpropanamido)-4-phenylbut-1-en-1-yl)-3-methylthiazol-3-ium Iodide]
- Rate of Thiolation, k [6]: 0.25 ± 0.083 M⁻¹ s⁻¹
- Ki (cruzain [1]; [7]): 940 ± 60 nM

Compound: Cc1cc(=O)oc2cc(NC(=O)C(Cc3ccncc3)NC(=O)C(Cc3ccccc3)NC(=O)OCc3ccccc3)ccc12 (stereo not drawn) [Compound S5, Cbz-Phe-(4-Pyr)Ala-AMC] (Cbz-Phe-[4Pal]-{AMC}; configuration not given here)
- Km (cruzain [5]): 3.7 µM
- kcat (cruzain [5]): 7.5 ± 0.5 s⁻¹
- kcat/Km (cruzain [5]): 2e+06 ± 400000 M⁻¹ s⁻¹
- kcat rel (cruzain [5]): 0.76
